The values that follow come from article PMC8072890, “Aminoalkylamides of Eremomycin Exhibit an Improved Antibacterial Activity” (Pharmaceuticals, 2021).

What all share (type): cell-based
For test [1], the system named is E. faecalis 559. The conditions noted are these: sensitive strain; broth dilution micromethod, CLSI; modal values (or range) of 3–5 independent tests. The text has this: (§1) The antimicrobial activity of semisynthetic derivatives of eremomycin 4a–q was studied in comparison with vancomycin on a wide panel of Gram-positive bacteria sensitive (Staphylococcus aureus ATCC 29213, S. aureus R-2, S. haemoliticus 602, S. pneumoniae ATCC 6305, Enteroccus faecium 4, and E. faecalis 559) and resistant to vancomycin (S. aureus 3797, S.aureus 3798, E. faecium 2, E. faecium 3576, E. faecalis 9, E. faecalis 583, and E. gallinarum BΠ 4147), information about the strains given in Table S3. The minimum microbial inhibitory concentration (MIC) for the test compounds was determined by the broth dilution micromethod according to CLSI guidelines, and vancomycin and a standard strain S. aureus ATCC 29213 used as controls (Figure 2 and Tables S4 and S5).
(§2) Table S4. Antibacterial activity of vancomycin and derivatives 4a–q against sensitive Gram-positive bacteria.
(§3) Strain/MIC (Minimum inhibitory concentration, μg/ml)*
(§4) Compound m n R S.aureus АТСС S.aureus R-2 S.haemoliticus S.pneumoniae АТСС E. faecium 4 E. faecalis 559
(§5) *MICs are presented as modal values for 3–5 independently replicated MIC tests for each strain and for the antibiotics. In the range of the
(§6) obtained MIC values, the obtained modal values are highlighted in bold.
On the technique in general: Broth dilution looks for growth in wells or tubes with falling amounts of substance.

In test [2] the test system is S. haemoliticus 602. The settings on record: sensitive strain; broth dilution micromethod, CLSI; modal values (or range) of 3–5 independent tests.
Description: as §1, §2, §3, §4, §5, §6

Test [3] has as its system Staphylococcus aureus ATCC 29213. The settings on record: vancomycin-sensitive control strain; broth dilution micromethod, CLSI; modal values (or range) of 3–5 independent tests.
Description: as §1, §2, §3, §4, §5, §6

Test [4] concerns S. aureus R-2. The conditions noted are these: sensitive strain; broth dilution micromethod, CLSI; modal values (or range) of 3–5 independent tests.
Description: as §1, §2, §3, §4, §5, §6

For test [5], the system named is E. faecium 4. The conditions noted are these: sensitive strain; broth dilution micromethod, CLSI; modal values (or range) of 3–5 independent tests.
Description: as §1, §2, §3, §4, §5, §6

The subject of test [6] is S. aureus 3797. The conditions noted are these: strain resistant to vancomycin; broth dilution micromethod, CLSI; modal values (or range) of 3–5 independent tests.
Description: as §1
(§7) Table S5. Antibacterial activity of vancomycin and derivatives 4a–q against resistant Gram-positive bacteria.
(§8) Strain/MIC (minimum inhibitory concentration; μg/ml)
(§9) Compound m n R S.aureus 3797 S.aureus 3798 E. faecium 2 E. faecium 3576 E. faecalis 9 E. faecalis 583 E. gallinarum
(§10) *MICs are presented as modal values for 3–5 independently replicate MIC tests for each strain and for the antibiotics. In the range of the obtained MIC
(§11) values, the obtained modal values are highlighted in bold.

For test [7], the system named is E. faecium 2. The settings on record: strain resistant to vancomycin; broth dilution micromethod, CLSI; modal values (or range) of 3–5 independent tests.
Description: as §1, §7, §8, §9, §10, §11

Test [8] relates to E. faecium 3576. The conditions noted are these: strain resistant to vancomycin; broth dilution micromethod, CLSI; modal values (or range) of 3–5 independent tests.
Description: as §1, §7, §8, §9, §10, §11

Test [9] has as its system S.aureus 3798. The conditions noted are these: strain resistant to vancomycin; broth dilution micromethod, CLSI; modal values (or range) of 3–5 independent tests.
Description: as §1, §7, §8, §9, §10, §11

For test [10], the system named is E. faecalis 9. The settings on record: strain resistant to vancomycin; broth dilution micromethod, CLSI; modal values (or range) of 3–5 independent tests.
Description: as §1, §7, §8, §9, §10, §11

For test [11], the system named is E. faecalis 583. The settings on record: strain resistant to vancomycin; broth dilution micromethod, CLSI; modal values (or range) of 3–5 independent tests.
Description: as §1, §7, §8, §9, §10, §11

In test [12] the test system is E. gallinarum BΠ 4147. The settings on record: strain resistant to vancomycin; broth dilution micromethod, CLSI; modal values (or range) of 3–5 independent tests.
Description: as §1, §7, §8, §9, §10, §11

The subject of test [13] is S. pneumoniae ATCC 6305. Description: MIC, broth dilution micromethod (CLSI). The conditions noted are these: sensitive strain, modal values (or range) of 3–5 independent tests.
Description: as §1, §2, §3, §4, §5, §6

As to “Eremomycin N-(2-((2-chloro-6-fluorobenzyl)ethyl)amide [4m]”, the “MIC E. faecalis 559” value in [1] is 0.5 to 1 µg/mL. The “MIC S.haemoliticus 602” value in [2] was found to be 0.125 µg/mL. Also, in test [3], the “MIC S.aureus ATCC 29213” value amounted to 0.25 µg/mL. Besides, in test [4], the “MIC S.aureus R-2” value fell in the range of 0.125 to 0.25 µg/mL. Besides, the “MIC E. faecium 4” value in test [5] worked out at 0.5 µg/mL. In [6], the “MIC S.aureus 3797” value stood at 2 µg/mL. The “MIC E. faecium 2” value in test [7] worked out at 1 µg/mL. Besides, in [8], the “MIC E. faecium 3576” value turned out to be 2 µg/mL. Besides, in test [9], the “MIC S.aureus 3798” value stood at 2 µg/mL. The “MIC E. faecalis 9” value in test [10] lay within 0.25 to 0.5 µg/mL. Moreover, the “MIC E. faecalis 583” value in test [11] came to 1 µg/mL. Further, the “MIC E. gallinarum ВП 4147” value in test [12] amounted to 2 µg/mL. In addition, the “MIC S.pneumoniae ATCC 6305” value in test [13] stood at 0.06 µg/mL.

For the substance “Eremomycin N-(2-((4-chlorobenzyl)amino)ethyl)amide [4i]”, the “MIC E. faecalis 559” value in [1] worked out at 0.5 µg/mL. The “MIC S.haemoliticus 602” value in test [2] was found to be 0.25 µg/mL. Moreover, the “MIC S.aureus ATCC 29213” value in test [3] was 0.125 to 0.25 µg/mL. For the same substance, the “MIC S.aureus R-2” value in test [4] turned out to be 0.25 µg/mL. The “MIC E. faecium 4” value in test [5] stood at 0.25 µg/mL. Further, the “MIC S.aureus 3797” value in test [6] was in the range of 0.25 to 0.5 µg/mL. Also, in test [7], the “MIC E. faecium 2” value came out at 0.5 µg/mL. For the same substance, the “MIC E. faecium 3576” value in test [8] was found to be 1 µg/mL. Also, in test [9], the “MIC S.aureus 3798” value is 1 µg/mL. Also, the “MIC E. faecalis 9” value in test [10] came to 0.06 µg/mL. Further, the “MIC E. faecalis 583” value in test [11] is 0.5 to 1 µg/mL. In addition, in test [12], the “MIC E. gallinarum ВП 4147” value was found to be 0.5 µg/mL. Also, in test [13], the “MIC S.pneumoniae ATCC 6305” value is 00.03 µg/mL.

Regarding “Eremomycin N-(2-((3-fluorobenzyl)amino)ethyl)amide [4g]”, the “MIC E. faecalis 559” value in test [1] fell in the range of 0.25 to 0.5 µg/mL. Besides, the “MIC S.haemoliticus 602” value in [2] was determined as 0.5 µg/mL. The “MIC S.aureus ATCC 29213” value in [3] is 0.03 µg/mL. Besides, the “MIC S.aureus R-2” value in test [4] turned out to be 0.06 µg/mL. For the same substance, the “MIC E. faecium 4” value in test [5] turned out to be 0.25 µg/mL. The “MIC S.aureus 3797” value in test [6] amounted to 1 µg/mL. Besides, in test [7], the “MIC E. faecium 2” value turned out to be 0.5 µg/mL. In addition, the “MIC E. faecium 3576” value in test [8] came out at 1 µg/mL. Besides, in test [9], the “MIC S.aureus 3798” value turned out to be 2 µg/mL. Also, the “MIC E. faecalis 9” value in test [10] was determined as 0.03 µg/mL. Further, the “MIC E. faecalis 583” value in [11] was in the range of 0.5 to 1 µg/mL. The “MIC E. gallinarum ВП 4147” value in [12] was found to be 1 µg/mL. Moreover, in test [13], the “MIC S.pneumoniae ATCC 6305” value worked out at 0.01 µg/mL.

For the substance “Eremomycin N-(2-((2,6-difluorobenzyl)amino)ethyl)amide [4j]”, in test [1], the “MIC E. faecalis 559” value is 0.25 µg/mL. Moreover, in test [2], the “MIC S.haemoliticus 602” value is 0.125 µg/mL. The “MIC S.aureus ATCC 29213” value in test [3] lay in the range of 0.03 to 0.06 µg/mL. Further, the “MIC S.aureus R-2” value in test [4] was 0.06 µg/mL. Besides, in test [5], the “MIC E. faecium 4” value lay within 0.25 to 0.5 µg/mL. Also, in test [6], the “MIC S.aureus 3797” value is 0.5 µg/mL. In test [7], the “MIC E. faecium 2” value lay within 0.5 to 1 µg/mL. For the same substance, the “MIC E. faecium 3576” value in test [8] is 1 µg/mL. Moreover, the “MIC S.aureus 3798” value in test [9] is 1 µg/mL. Besides, the “MIC E. faecalis 9” value in test [10] was 0.03 µg/mL. Besides, in test [11], the “MIC E. faecalis 583” value turned out to be 0.5 µg/mL. Besides, the “MIC E. gallinarum ВП 4147” value in [12] stood at 1 µg/mL. For the same substance, the “MIC S.pneumoniae ATCC 6305” value in test [13] is 0.03 µg/mL.

In the case of “Eremomycin N-(2-((3,5-difluorobenzyl)amino)ethyl)amide [4k]”, in [1], the “MIC E. faecalis 559” value was 0.5 µg/mL. The “MIC S.haemoliticus 602” value in [2] turned out to be 0.125 µg/mL. Also, in [3], the “MIC S.aureus ATCC 29213” value was 0.25 µg/mL. The “MIC S.aureus R-2” value in test [4] lay in the range of 0.125 to 0.25 µg/mL. For the same substance, the “MIC E. faecium 4” value in test [5] is 0.5 µg/mL. For the same substance, the “MIC S.aureus 3797” value in test [6] came out at 0.5 µg/mL. In addition, the “MIC E. faecium 2” value in test [7] amounted to 1 µg/mL. Moreover, in test [8], the “MIC E. faecium 3576” value is 1 µg/mL. Moreover, the “MIC S.aureus 3798” value in test [9] is 1 µg/mL. In addition, the “MIC E. faecalis 9” value in test [10] was found to be 0.06 µg/mL. For the same substance, the “MIC E. faecalis 583” value in test [11] stood at 1 µg/mL. The “MIC E. gallinarum ВП 4147” value in test [12] came to 1 µg/mL. The “MIC S.pneumoniae ATCC 6305” value in [13] turned out to be 0.01 µg/mL.
